The source of these data is patent US20070027120A1, “Methods of using vitamin D compounds in the treatment of myelodysplastic syndromes” (priority 2002, published 2007).

Data set [1] has as its system MDS. Particulars: 75 mg/m^2/day subcutaneously for 7 days out of 28; cited from earlier work.
The conditions of data set [2]: relative to calcitriol; cited from earlier work.
The test system of data set [3] is refractory malignancies. Particulars: weekly HDPA; cited from earlier work.
In data set [4] the test system is low risk MDS and refractory anemia unresponsive to erythropoietin. Description: Phase 2 trial of high dose pulse administration of calcitriol. The format is in vivo, human. The method, then: Patients having low risk MDS and refractory anemia unresponsive to erythropoietin were entered into a Phase 2 trial to evaluate the effect of high dose pulse administration of calcitriol. These patients are red blood cell transfusion dependent because of severe anemia. Patients were administered weekly oral calcitriol at a dose of 45 μg for 20 consecutive weeks. The calcitriol was formulated in a composition containing the following excipients with the amount given in approximate percentage by weight: 65% MIGLYOL 812N®, 30% […] 44/14®, 5% vitamin-E TPGS and about 0.05% each of butylated hydroxytoluene (BHT) and butylated hydroxyanisole (BHA).

For data set [5], the system named is MDS. The settings on record: cited from earlier work.
Data set [6] relates to MDS. Particulars: cited from earlier work. This is another data set of the same source.
Where [7] appears, read: Patient #1, 45 μg oral weekly for 20 weeks.
Where [8] appears, read: Patient #3, 45 μg oral weekly for 20 weeks.

Where two headings read alike, the source gives them in different places.

In the case of `Nc1ncn([C@@H]2O[C@H](CO)[C@@H](O)[C@H]2O)c(=O)n1` [5-azacytidine], in data set [1], the “patients with a complete response” value was 7% and the “patients with at least a partial response” value was around 60%.

For `C=C1/C(=C\C=C2/CCC[C@]3(C)[C@@H]([C@H](C)/C=C/[C@@H](O)C4CC4)CC[C@@H]23)C[C@@H](O)C[C@@H]1O` [calcipotriol], the calcemic index entry in data set [2] is “about 0.01”.

Take `C=C1/C(=C/C=C2/CCC[C@@]3(C)C2CC[C@@H]3[C@H](C)CCCC(C)(C)O)C[C@@H](O)C[C@@H]1O` (stereo in doubt) [calcitriol, 1α,25-dihydroxycholecalciferol]: in data set [3], the dose-limiting toxicity result is “no dose-limiting toxicity” and the “mean peak calcitriol levels” value is recorded as “within the therapeutic range”. Also, in data set [4] (setting [7]), the protocol defined response result is “minor response (A minor erythroid responder is a subject with a baseline hemoglobin of less than 11 g/dL who experiences an increase of 1 to 2 g/dL from baseline)” and the “rise in hemoglobin as compared to baseline” value is given as “more than one”. Further, in data set [4] (Patient #2, 45 μg oral weekly for 20 weeks), the “decrease in required red blood cell transfusions as compared to baseline” value was determined as 50%. Besides, in data set [4] (setting [8]), the protocol defined response result is given as “major response (A major erythroid responder is a subject with a baseline hemoglobin of less than 11 g/dL who experiences an increase of greater than or equal to 2 g/dL from the baseline)” and the “rise in hemoglobin as compared to baseline” value is “more than two”. In data set [5] (daily administration (Koeffler et al.)), the “dose at which hypercalcemia was induced” value is 2 µg/day. The “maximum dose administered without hypercalcemia” value in data set [5] (subjects with MDS (Mellibovsky et al.)) was 0.75 µg/day. The calcemic index in data set [2] was 1.

Regarding “EPO: erythropoietin, hematopoietic growth factor”, the subjects who respond result is reported as “about 40%” in data set [6] (EPO administered with G-CSF) and “about 20%” in data set [6] (EPO alone). For the same compound, the rate of responsiveness in data set [6] (refractory anemia and refractory anemia with ring sideroblasts) is reported as 21%; in data set [6] (refractory anemia with excess blasts) it was 8%.
